“And” between values parts separate entries of the source, which are not always exact repeats. Equal values may be shown once. Read-outs that look alike come from different tables or passages of the source.
How the values were obtained:
Pyricularia oryzae [1] = type: cell-based; settings: 7 days after inoculation
Pyrenophora teres = assay: Activity against net blotch on barley in the microtiter test; type: cell-based; settings: comparative microtest Example 1, 7 days after inoculation
Method: The stock solutions were mixed according to the ratio, pipetted onto a micro titer plate (MTP) and diluted with water to the stated concentrations. A spore suspension of Pyrenophora teres in an aqueous biomalt or yeast-bactopeptone-glycerine solution was then added. The plates were placed in a water vapor-saturated chamber at a temperature of 18° C. Using an absorption photometer, the MTPs were measured at 405 nm 7 days after the inoculation.

Alternaria solani = assay: Activity against early blight, microtiter test; type: cell-based; settings: 7 days after inoculation; for Growth (%) at 0.000125 pm: comparative microtest Example 5; for Growth (%) at 0.5 pm: comparative microtest Example 2
Septoria tritici [2] = assay: Activity against leaf blotch on wheat, microtiter test; type: cell-based; settings: 32 ppm; 405 nm, 7 days after inoculation; compound-free control = 100%
Phytophthora infestans = type: cell-based; settings: 32 ppm; 405 nm, 7 days after inoculation; compound-free control = 100%
Botrytis cinerea = assay: Activity against grey mold in the microtiterplate test; type: cell-based; settings: 7 days after inoculation; for Growth (%) at 0.5 pm: comparative microtest Example 3
Leptosphaeria nodorum = assay: Activity against wheat leaf spots, microtiter test; type: cell-based; settings: 32 ppm; 405 nm, 7 days after inoculation; compound-free control = 100%
Fusarium culmorum = assay: Control of culm rot on pearl millet (comparative green house test); type: in vivo; settings: pearl millet sprayed one day before inoculation, % diseased leaf area after 6 days
Method: The spray solutions were prepared in several steps:
The stock solution were prepared: a mixture of acetone and/or dimethylsulfoxide and the wetting agent/emulsifier Wettol, which is based on ethoxylated alkylphenoles, in a relation (volume) solvent-emulsifier of 99 to 1 was added to 25 mg of the compound to give a total of 5 ml.
Water was then added to total volume of 100 ml.
This stock solution was diluted with the described solvent-emulsifier-water mixture to the given concentration.
Pot-grown pearl millet seedlings with 2-3 leaves were sprayed to run-off with an aqueous suspension of the compound prepared as described. The plants were allowed to air-dry. At the following day the plants were inoculated with an spore suspension of Fusarium culmorum in a 2% aqueous malt solution. Then the trial plants were immediately transferred to a humid chamber. After 6 days at 23-25° C. and a relative humidity close to 100% the extent of fungal attack on the leaves was visually assessed as % diseased leaf area.

Pyricularia oryzae [3] = type: in vivo; settings: rice sprayed seven days before inoculation, % diseased leaf area after 6 days, untreated control 90
Septoria tritici [4] = assay: Preventative control of leaf blotch on wheat (comparative green house test); type: in vivo; settings: % diseased leaf area after 4 weeks, untreated control 90
Method: (§1) The spray solutions were prepared in several steps: The stock solution were prepared: a mixture of acetone and/or dimethylsulfoxide and the wetting agent/emulsifier Wettol, which is based on ethoxylated alkylphenoles, in a relation (volume) solvent-emulsifier of 99 to 1 was added to 25 mg of the compound to give a total of 5 ml. Water was then added to total volume of 100 ml. This stock solution was diluted with the described solvent-emulsifier-water mixture to the given concentration. Leaves of pot-grown wheat seedling were sprayed to run-off with an aqueous suspension of the active compound or their mixture, prepared as described. The plants were allowed to air-dry. At the following day the plants were inoculated with an aqueous spore suspension of Septoria tritici. […] After 4 days the plants were transferred to a chamber with 18-22° C. and a relative humidity close to 70%. After 4 weeks the extent of fungal attack on the leaves was visually assessed as % diseased leaf area.

Septoria tritici [5] = assay: Curative control of leaf blotch on wheat (comparative green house test); type: in vivo; settings: wheat sprayed seven days after inoculation, % diseased leaf area after 4 weeks, untreated control 90
Method: as §1, with “were” for “were sprayed to run-off with an aqueous suspension of the active compound or their mixture, prepared as described. The plants were allowed to air-dry. At the following day the plants were”, “70%. Seven days after inoculation the plants were sprayed to run-off with an aqueous suspension of the active compound or their mixture, prepared as described. Then the plants were transferred back to the chamber with 18-22° C. and a relative humidity close to 70%.” for “70%.”

[6] = comparative microtest Example 7
[7] = 32 ppm, 405 nm, compound-free control = 100%
[8] = comparative microtest Example 4

## CC#CC(O)(Cn1cncn1)c1ccc(Oc2ccc(Cl)cc2)cc1Cl (stereo not shown) [Compound I-8, 2-[2-chloro-4-(4-chlorophenoxy)phenyl]-1-(1,2,4-triazol-1-yl)pent-3-yn-2-ol]
other
  melting point: 139 °C

## CCC(Cn1cncn1)(OC)c1ccc(Oc2ccc(Cl)cc2)cc1Cl (stereo not shown) [drawing 22, reference compound]
Pyricularia oryzae [1]; [6]
  Growth (%) at 0.5 pm: 47%

## CC(O)(Cn1cncn1)c1ccc(Oc2ccc(Cl)cc2)cc1Cl (stereo not shown) [drawing 6]
Pyrenophora teres
  Growth (%) at 8 pm: 62%

## C#CCC(O)(Cn1cncn1)c1ccc(Oc2ccc(Cl)cc2)cc1Cl (stereo not shown) [Compound I-11, 2-[2-chloro-4-(4-chloro-phenoxy)-phenyl]-1-[1,2,4]triazol-1-yl-pent-4-yn-2-ol]
Pyricularia oryzae [1]; [7]
  relative growth of the pathogen: 0%
Alternaria solani; [7]
  relative growth of the pathogen: 2%
Septoria tritici [2]
  relative growth of the pathogen: 9%
Phytophthora infestans
  relative growth of the pathogen: 12%
Botrytis cinerea; [7]
  relative growth of the pathogen: 0%
Leptosphaeria nodorum
  relative growth of the pathogen: 2%

## CCC(O)(Cn1cncn1)c1ccc(Oc2ccc(Cl)cc2)cc1Cl (stereo not shown) [Compound I-1, 2-[2-chloro-4-(4-chlorophenoxy)phenyl]-1-(1,2,4-triazol-1-yl)butan-2-ol]
Fusarium culmorum; untreated control 90, listed as Table 1, 1
  Disease (%) at 16 ppm: 0% and 1%
Pyricularia oryzae [3]
  Disease (%) at 250 ppm: 20%
Pyricularia oryzae [1]; [6]
  Growth (%) at 0.5 pm: 15%
Septoria tritici [4]
  Disease (%) at 150 ppm: 10%
Alternaria solani
  Growth (%) at 0.000125 pm: 1%
Pyrenophora teres
  Growth (%) at 8 pm: 13%
Septoria tritici [5]
  Disease (%) at 16 ppm: 40%
other
  melting point: 140 to 142 °C

## CC(O)(Cn1cncn1)c1ccc(Oc2ccc(Cl)cc2)cc1Cl (stereo not shown) [drawing 17, reference compound]
Alternaria solani
  Growth (%) at 0.000125 pm: 45%

## CC(O)(Cn1cncn1)c1ccc(Oc2ccc(Cl)cc2)cc1Cl (stereo not shown) [drawing 29, reference compound]
Fusarium culmorum; untreated control 90
  Disease (%) at 16 ppm: 25%

## OC(/C=C/c1ccccc1)(Cn1cncn1)c1ccc(Oc2ccc(Cl)cc2)cc1Cl (stereo not shown) [drawing 13, reference compound]
Botrytis cinerea
  Growth (%) at 0.5 pm: 77%

## OC(Cn1cncn1)c1ccc(Oc2ccc(Cl)cc2)cc1Cl (stereo not shown) [drawing 27, reference compound]
Pyricularia oryzae [3]
  Disease (%) at 250 ppm: 60%

## CC(F)C(O)(Cn1cncn1)c1ccc(Oc2ccc(Cl)cc2)cc1Cl (stereo not shown)
Septoria tritici [4]
  Disease (%) at 150 ppm: 50%

## OC(Cn1cncn1)c1ccc(Oc2ccc(Cl)cc2)cc1Cl (stereo not shown) [drawing 32, reference compound]
Fusarium culmorum; untreated control 90
  Disease (%) at 16 ppm: 30%

## CCC(Cn1cncn1)(OC)c1ccc(Oc2ccc(Cl)cc2)cc1Cl (stereo not shown) [drawing 18, reference compound]
Alternaria solani
  Growth (%) at 0.000125 pm: 83%

## OC(/C=C/c1ccccc1)(Cn1cncn1)c1ccc(Oc2ccc(Cl)cc2)cc1Cl (stereo not shown) [drawing 11, reference compound]
Alternaria solani
  Growth (%) at 0.5 pm: 91%

## CCC(Cn1cncn1)(OC)c1ccc(Oc2ccc(Cl)cc2)cc1Cl (stereo not shown) [drawing 7]
Pyrenophora teres
  Growth (%) at 8 pm: 39%

## CCC(Cn1cncn1)(OC)c1ccc(Oc2ccc(Cl)cc2)cc1Cl (stereo not shown) [drawing 34, reference compound]
Septoria tritici [5]
  Disease (%) at 16 ppm: 70%

## CCCC(Cn1cncn1)(OC)c1ccc(Oc2ccc(Cl)cc2)cc1Cl (stereo not shown) [drawing 9]
Pyrenophora teres
  Growth (%) at 8 pm: 77%

## CCCC(Cn1cncn1)(OC)c1ccc(Oc2ccc(Cl)cc2)cc1Cl (stereo not shown) [drawing 15, reference compound]
Pyricularia oryzae [1]; [8]
  Growth (%) at 0.5 pm: 30%

## OC(Cn1cncn1)(c1ccc(Oc2ccc(Cl)cc2)cc1Cl)C1CC1 (stereo not shown) [Compound I-9]
Fusarium culmorum; untreated control 90
  Disease (%) at 16 ppm: 5%
Alternaria solani
  Growth (%) at 0.000125 pm: 1%
other
  melting point: 110 °C

## CC(O)(Cn1cncn1)c1ccc(Oc2ccc(Cl)cc2)cc1Cl (stereo not shown) [drawing 21, reference compound]
Pyricularia oryzae [1]; [6]
  Growth (%) at 0.5 pm: 82%

## CCCC(O)(Cn1cncn1)c1ccc(Oc2ccc(Cl)cc2)cc1Cl (stereo not shown) [Compound I-2, 2-[2-chloro-4-(4-chloro-phenoxy)-phenyl]-1-[1,2,4]triazol-1-yl-pentan-2-ol]
Pyricularia oryzae [1]; [8]
  Growth (%) at 0.5 pm: 4%
Pyrenophora teres
  Growth (%) at 8 pm: 57%
other
  melting point: 132 to 135 °C

## OC(Cn1cncn1)c1ccc(Oc2ccc(Cl)cc2)cc1Cl (stereo not shown) [drawing 24]
Septoria tritici [4]
  Disease (%) at 150 ppm: 60%

## C=CC(O)(Cn1cncn1)c1ccc(Oc2ccc(Cl)cc2)cc1Cl (stereo not shown) [Compound I-10]
Alternaria solani
  Growth (%) at 0.5 pm: 0%
Botrytis cinerea
  Growth (%) at 0.5 pm: 0%
other
  melting point: 119 °C
